Results from PMC4264453 (British Journal of Cancer, 2014).
Counter-ions that a name gives are not always drawn.

Legend:
[1] = system: patients; details: ref Synold et al, 2005, cited from earlier work
[2] = system: patients with advanced solid malignancies; details: ref Goel et al, 2009; cited from earlier work
[3] = system: patients with advanced solid tumours; format: in vivo, human; details: days 1, 8 with cisplatin 75 mg m^−2 day 1, 21-day cycle
[4] = Eribulin plasma pharmacokinetics; format: in vivo, human; details: for AUC(0-inf) / clearance / Cmax / half-life / Vd: human, plasma, intravenous; for AUC(0-inf): AUC0-inf; for clearance: CL; for Vd: Vss
[5] = no reference given; cited from earlier work
[6] = system: patients with advanced solid tumours; details: 4 mg m^−2 cohort; ref Tan et al, 2009; cited from earlier work
[7] = 60 mg, Dose level 3: eribulin mesylate 1.2 with cisplatin 60 mg m^−2, first dose, N=4, mean (s.d.)
[8] = 60 mg, Dose level 5: eribulin mesylate 1.4 with cisplatin 60 mg m^−2, first dose, N=6, mean (s.d.)
[9] = 75 mg, Dose level 6: eribulin mesylate 1.2 with cisplatin 75 mg m^−2, first dose, N=3, mean (s.d.)

C=C1C[C@@H]2CC[C@@]34C[C@H]5O[C@H]6[C@@H](O3)[C@H]3O[C@H](CC[C@@H]3O[C@H]6[C@H]5O4)CC(=O)C[C@@H]3[C@@H](OC)[C@@H](C[C@H](O)CN)O[C@H]3C[C@H]3O[C@@H](CC[C@@H]1O2)C[C@@H](C)C3=C [Eribulin mesylate]
minor responses ([1]; lung, breast, and thyroid): three | median duration of stable disease ([1]; range 2–14 months): 4 months | patients exhibiting stable disease as the best response [1]: 12 patients | dose at which grade 3 toxicity first occurred ([1]; single agent): 0.5 mg m^−2 | principal DLT [2]: neutropenia | MTD and recommended phase II dose of eribulin mesylate in combination with cisplatin [3]: 1.2 mg m^−2 | effect of cisplatin co-administration on the disposition of eribulin mesylate ([4]; compared to previously reported single agent data (Goel et al, 2009; Tan et al, 2009)): no apparent effect | dose proportionality of mean Cmax and AUC0-inf ([4]; eribulin 1.2–1.4 mg m^−2 with cisplatin): did not increase in a dose-proportional manner | AUC(0-inf) [4, 7]: 1500 ng·h/mL | AUC(0-inf) [4, 8]: 1100 ng·h/mL | clearance [4, 7]: 26.7 mL/min | clearance [4, 8]: 38.3 mL/min | Cmax [4, 7]: 466 ng/mL | Cmax [4, 8]: 508 ng/mL | half-life ([4]; 60 mg, T1/2, Dose level 3: eribulin mesylate 1.2 with cisplatin 60 mg m^−2, first dose, N=4, mean (s.d.)): 40.8 h | half-life ([4]; 60 mg, T1/2, Dose level 5: eribulin mesylate 1.4 with cisplatin 60 mg m^−2, first dose, N=6, mean (s.d.)): 36.5 h | Vd [4, 7]: 51.4 L | Vd [4, 8]: 77.7 L | AUC(0-inf) [4, 9]: 1030 ng·h/mL | clearance [4, 9]: 36.7 mL/min | Cmax [4, 9]: 695 ng/mL | half-life ([4]; 75 mg, T1/2, Dose level 6: eribulin mesylate 1.2 with cisplatin 75 mg m^−2, first dose, N=3, mean (s.d.)): 35.5 h | Vd [4, 9]: 68.4 L | administered dose recovered in urine [5]: < 8% | patients experiencing febrile neutropenia (dominant DLT) [6]: all three patients
